Source: patent US20030087014A1, “Enhanced thermal inactivation of pathogen in a nutriment by acidulant” (Mionix Corp., priority 2001, published 2003)

Tested on: human skin
Assay: Contact of acidic solution with human skin and nose
Details: solution with a pH of less than 0.5

Structure (SMILES): O=S(=O)(O)O [sulfuric acid]
- Irritation of hand put into the solution: an irritation would occur within a relatively short span of time
